Tests used:
[1] = target: HPK1 (Homo sapiens (Human), UniProt Q92918); assay: Assay for in vitro inhibitory activity against HPK1 kinase; format: biochemical; settings: ATP 0.1 mM; HTRF, STK Substrate 1-biotin; read-out: In vitro inhibitory activity against enzyme HPK1 IC50
Protocol: The kinase buffer (Enzymatic buffer 5×) was diluted to 1×, and 10 mM MgCl2, 1 mM DTT, and 0.005% Tween 20 were added. The 100 ng/μL HPK1 (Life technology) stock solution was diluted with the kinase buffer to obtain a 1.67×, 1.67 ng/μL working solution (final concentration: 1 ng/μL), and the working solution was seeded in a 384-well plate at 6 μL/well. Different compounds dissolved in DMSO were added to the wells using a nanoliter pipettor to final concentrations of 1000 nM to 0.244 nM (4-fold serial dilution, 7 concentrations in total), and blank control wells (without enzyme) and negative control wells (with enzyme, plus vehicle DMSO) were set; the wells were set in duplicate. After the enzyme and compounds were incubated at room temperature for 1 h, a 5×, 0.5 mM ATP dilution (final concentration: 0.1 mM) in the kinase buffer was mixed with a 5×, 2.5 μM substrate (Cisbio, STK Substrate 1-biotin; final concentration: 500 nM) in equal volume, and the mixture was added to each well at 4 μL/well. The plate was sealed with a film and then incubated at room temperature for 2 h. An assay antibody solution was prepared by mixing the antibody STK Antibody-cryptate (Cisbio, 5 μL/test) and a 4×, 500 nM Streptavidin-XL665 (Cisbio; final concentration: 125 nM) in equal volume and was added to each well at 10 μL/well, and the plate was incubated at room temperature for 1 h. The signal values ([…]) were measured using a PE Envision multi-functional microplate reader, and IC50 was calculated by four-parameter fitting.

[2] = In vitro liver microsomal stability (HLM); format: in vitro ADME, human
Protocol: (§1) Preparation of liver microsome incubated samples: PBS buffer (pH 7.4), liver microsome solutions (0.5 mg/mL; HLM and MLM, respectively), the test compounds and NADPH+MgCl2 solution were mixed and incubated at 37° C. at 300 rpm for 1 h. Preparation of zero-hour samples: PBS buffer (pH 7.4), liver microsome solutions (0.5 mg/mL; HLM and MLM, respectively) and the test compounds were mixed. An acetonitrile solution containing internal standard was added to the samples, and supernatants were prepared by protein precipitation, diluted and then analyzed by LC/MS/MS.

[3] = In vitro liver microsomal stability (MLM); format: in vitro ADME, mouse
Protocol: as §1

[4] = tested on: Jurkat cell p-SLP76 phosphorylation; assay: Assay for Jurkat cell p-SLP76 phosphorylation inhibitory activity; format: cell-based; settings: Homo sapiens, 0.5 h; Jurkat cells, CD3CD28 stimulation 30 min; read-out: Jurkat cell p-SLP76 phosphorylation inhibition IC50
Protocol: The Jurkat cells in a good growth state were added to a centrifuge tube, centrifuged, and resuspended. The cell density was adjusted to 6.25×10^6 cells/mL, and the cells were seeded in a 384-well small-volume white plate at 8 μL/well. Compounds were added in duplicate using a nanoliter pipettor to final concentrations of 2500 nM to 10.29 nM and a control was set. After 1 h of cell culture, the stimulator CD3CD28 (4 μL; manufacturer: Stemcell) was added and the cells were incubated at 37° C. for 30 min. 3 μL of lysis buffer (manufacturer: BioAuxilium) was added to each well, and the plate was shaken at room temperature for 30 min. After the lysate was well mixed, 5 μL of pre-mixed antibody (manufacturer: BioAuxilium) in assay buffer was added and the plate was incubated overnight at room temperature. The signal values were measured on a PerkinElmer Envision multi-functional microplate reader (excitation: 320 nm, emission: 615 nm/665 nm), and IC50 was calculated by four-parameter fitting.

[5] = HLM 0.5 mg/mL, 37° C., NADPH, 60 min
[6] = MLM 0.5 mg/mL, 37° C., NADPH, 60 min

Sequence of HPK1 (Q92918 whole entry): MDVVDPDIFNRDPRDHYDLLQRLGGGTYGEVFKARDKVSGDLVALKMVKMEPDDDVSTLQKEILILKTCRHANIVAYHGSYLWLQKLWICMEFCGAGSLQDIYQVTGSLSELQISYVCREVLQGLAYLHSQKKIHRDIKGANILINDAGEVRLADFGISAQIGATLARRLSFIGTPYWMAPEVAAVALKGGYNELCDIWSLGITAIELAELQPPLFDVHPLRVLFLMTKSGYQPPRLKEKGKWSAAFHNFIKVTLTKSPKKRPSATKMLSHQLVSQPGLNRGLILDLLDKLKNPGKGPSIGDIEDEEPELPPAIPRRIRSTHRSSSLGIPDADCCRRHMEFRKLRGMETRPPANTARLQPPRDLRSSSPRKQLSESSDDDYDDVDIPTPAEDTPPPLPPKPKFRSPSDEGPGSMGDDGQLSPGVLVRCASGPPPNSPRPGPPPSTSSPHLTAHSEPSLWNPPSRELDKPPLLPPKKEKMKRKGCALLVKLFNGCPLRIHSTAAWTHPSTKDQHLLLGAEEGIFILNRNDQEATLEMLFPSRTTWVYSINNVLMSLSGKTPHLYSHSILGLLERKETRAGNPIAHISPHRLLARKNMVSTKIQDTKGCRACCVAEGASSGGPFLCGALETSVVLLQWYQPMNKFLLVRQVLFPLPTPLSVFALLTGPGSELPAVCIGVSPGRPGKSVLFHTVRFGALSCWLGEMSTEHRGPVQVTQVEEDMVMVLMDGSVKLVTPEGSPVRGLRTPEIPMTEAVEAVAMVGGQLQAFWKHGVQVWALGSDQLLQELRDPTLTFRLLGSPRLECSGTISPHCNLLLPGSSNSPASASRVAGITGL

SMILES | IC50 [1] [nM] | HLM (0.5 mg/mL) Remaining percentage (T = 60 min) [2, 5] [%] | MLM (0.5 mg/mL) Remaining percentage (T = 60 min) [3, 6] [%] | IC50 [4] [nM] | HLM (0.5 mg/mL) Remaining percentage (T = 60 min) ([2]; human, microsomes, 1 h, pH 7.4) [%] | MLM (0.5 mg/mL) Remaining percentage (T = 60 min) ([3]; mouse, microsomes, 1 h, pH 7.4) [%]
[2H]C1([2H])N(C)C([2H])([2H])C([2H])([2H])N(c2ccc3[nH]c(-c4c(N)c5ccsc5[nH]c4=O)nc3c2)C1([2H])[2H] [Example 2, 4-amino-5-(5-(4-methylpiperazin-1-yl-2,2,3,3,5,5,6,6-d8)-1H-benzo[d]imidazol-2-yl)thieno [2,3-b]pyridin-6(7H)-one] | 9.7 | 89.66 | 45.97 |  |  | 
[2H]C1([2H])CN(c2ccc3[nH]c(-c4c(N)c5ccsc5[nH]c4=O)nc3c2)CC([2H])([2H])N1C [Example 3, 4-amino-5-(5-(4-methylpiperazin-1-yl-3,3,5,5-d4)-1H-benzo[d]imidazol-2-yl)thieno[2,3-b]pyridin-6(7H)-one] | 7.5 | 90.85 | 45.47 |  |  | 
[2H]C1([2H])CN(C)CC([2H])([2H])N1c1ccc2[nH]c(-c3c(N)c4ccsc4[nH]c3=O)nc2c1 [Example 4, 4-amino-5-(5-(4-methylpiperazin-1-yl-2,2,6,6-d4)-1H-benzo[d]imidazol-2-yl)thieno[2,3-b]pyridin-6(7H)-one] | 9.2 |  |  | 83 | 88.50 | 42.58
[2H]c1cc2c(N)c(-c3nc4c([2H])c(N5CCN(C)CC5)c([2H])cc4[nH]3)c(=O)[nH]c2s1 [Example 5, 4-amino-5-(5-(4-methylpiperazin-1-yl)-1H-benzo[d]imidazol-2-yl-4,6-d2)thieno[2,3-b]pyridin-6(7H)-one-2-d] | 8.8 |  |  | 53 |  | 

— patent publication US20240002394A1, “DEUTERIUM-MODIFIED THIENOPYRIDONE COMPOUND” (Chia Tai Tianqing Pharmaceutical Group Co., Ltd., priority 2020, published 2024)
